In patent publication US10947201B2, “Certain chemical entities, compositions, and methods” (NEUPHARMA, INC., priority 2015, dated 2021):

What was measured:
Assay type in all cases: biochemical
Conditions in all cases: for inhibition at 0.1 µM: compound at 100 nM, [ATP] = Km
[1] = molecular target: T1, BTK (Homo sapiens, UniProt Q06187); test: Z'-LYTE kinase inhibition assay (Invitrogen), BTK
T1 construct: purchased Invitrogen
Description: (§1) Inhibitory activities of compounds against BTK, EGFR and EGFR mutants (EGFR L858R/T790M) were measured by Invitrogen using Z′-LYTE® Method as briefly described in the following.
(§2) Test Compounds are screened in 1% DMSO (final) in the well. For 10 point titrations, 3-fold serial dilutions are conducted from the starting concentration. All ATP Solutions are diluted to a 4× working concentration in Kinase Buffer (50 mM HEPES pH 7.5, 0.01% BRIJ-35, 10 mM MgCl2, 1 mM EGTA). Peptide/Kinase Mixtures are diluted to a 2× working concentration in the appropriate Kinase Buffers as described below.
(v) Peptide/Kinase Mixtures for measurement of BTK:
The 2×BTK/Tyr 01 mixture is prepared in 50 mM HEPES pH 7.5, 0.01% BRIJ-35, 10 mM MgCl2, 1 mM EGTA. The final 10 μL Kinase Reaction consists of 1.04-10.4 ng BTK and 2 μM Tyr 01 in 50 mM HEPES pH 7.5, 0.01% BRIJ-35, 10 mM MgCl2, 1 mM EGTA. After the 1 hour Kinase Reaction incubation, 5 μL of a 1:256 dilution of Development Reagent B is added.
(§3) Reaction starts by 30-second shaking of mixture consisting of 2.5 μL 4× test compound, 5 μL 2× kinase reaction mixture and 2.5 μL 4×ATP Solution on Bar-coded Corning, low volume NBS, black 384-well plate (Corning Cat. #3676). Then the mixture is incubated for 60-minute at room temperature for the kinase reaction, followed by addition of 5 μL of a 1:1024 dilution of development reagent A and 30-second plate shake. The mixture is then incubated for another 60-minute at room temperature for development reaction. Finally fluorescence is read by plate reader. […] The scale utilized in Tables 2 and 3 is as follows: ++ more than 50% inhibition and + less than 50% inhibition.
(§4) To determine IC50 of a compound against EGFR or EGFR mutants, a series of concentrations of the compound were tested for the inhibition. IC50 was calculated by plotting the concentration of compound vs the percentage of inhibition in treated wells using GraphPad Prism 5. […] The scale utilized in Table 4 is as follows: ++ less than 100 nM and + greater than 100 nM.

[2] = molecular target: T2, EGFR (ErbB1) (Homo sapiens, UniProt P00533); test: Z'-LYTE kinase inhibition assay (Invitrogen), EGFR
T2 construct: purchased Invitrogen
T2 sequence (P00533 25-1210): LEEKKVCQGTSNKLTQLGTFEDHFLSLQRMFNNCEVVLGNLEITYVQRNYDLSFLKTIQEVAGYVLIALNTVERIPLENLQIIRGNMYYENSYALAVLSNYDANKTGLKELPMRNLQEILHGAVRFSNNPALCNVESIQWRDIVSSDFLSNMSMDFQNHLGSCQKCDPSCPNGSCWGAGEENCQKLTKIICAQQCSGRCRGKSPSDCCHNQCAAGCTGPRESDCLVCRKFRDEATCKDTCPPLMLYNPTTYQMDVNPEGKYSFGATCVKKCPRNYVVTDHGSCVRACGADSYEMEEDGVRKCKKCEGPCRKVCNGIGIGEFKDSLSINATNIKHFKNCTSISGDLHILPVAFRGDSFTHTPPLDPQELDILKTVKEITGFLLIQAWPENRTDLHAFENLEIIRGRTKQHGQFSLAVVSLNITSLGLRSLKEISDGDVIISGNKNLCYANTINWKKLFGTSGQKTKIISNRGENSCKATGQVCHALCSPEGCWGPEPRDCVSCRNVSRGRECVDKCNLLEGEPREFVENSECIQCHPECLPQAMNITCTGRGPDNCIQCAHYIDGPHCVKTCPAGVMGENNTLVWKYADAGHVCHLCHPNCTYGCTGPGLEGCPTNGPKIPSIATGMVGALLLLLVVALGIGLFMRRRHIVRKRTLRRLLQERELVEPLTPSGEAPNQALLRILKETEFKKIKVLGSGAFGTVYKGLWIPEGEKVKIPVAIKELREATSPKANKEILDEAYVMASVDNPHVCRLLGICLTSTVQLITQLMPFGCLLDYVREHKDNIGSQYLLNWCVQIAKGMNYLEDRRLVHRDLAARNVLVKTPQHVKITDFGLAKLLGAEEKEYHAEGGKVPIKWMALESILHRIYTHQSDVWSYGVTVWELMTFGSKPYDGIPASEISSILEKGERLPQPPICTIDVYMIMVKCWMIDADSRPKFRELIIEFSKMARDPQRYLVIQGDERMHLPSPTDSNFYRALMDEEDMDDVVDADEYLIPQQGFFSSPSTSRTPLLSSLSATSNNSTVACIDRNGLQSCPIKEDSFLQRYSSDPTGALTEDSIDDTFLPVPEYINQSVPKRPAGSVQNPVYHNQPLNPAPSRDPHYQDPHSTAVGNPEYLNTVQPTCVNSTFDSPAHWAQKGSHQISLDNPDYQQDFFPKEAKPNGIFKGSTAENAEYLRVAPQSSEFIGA
Description: as §1, §2
(i) Peptide/Kinase Mixtures for measurement of EGFR (ErbB1):
The 2×EGFR (ErbB1)/Tyr 04 mixture is prepared in 50 mM HEPES pH 7.5, 0.01% BRIJ-35, 10 mM MgCl2, 4 mM MnCl2, 1 mM EGTA, 2 mMDTT. The final 10 μL Kinase Reaction consists of 1.1-5.25 ng EGFR (ErbB1) and 2 μM Tyr 04 in 50 mM HEPES pH 7.5, 0.01% BRIJ-35, 10 mM MgCl2, 2 mM MnCl2, 1 mM EGTA, 1 mM DTT. After the 1 hour Kinase Reaction incubation, 5 μL of a 1:64 dilution of DevelopmentReagent B is added.
as §3, §4

[3] = molecular target: T3, EGFR (ErbB1) T790M L858R (Homo sapiens, UniProt P00533, L858R/T790M); test: Z'-LYTE kinase inhibition assay (Invitrogen), EGFR L858R/T790M
T3 construct: purchased Invitrogen
T3 sequence (P00533 25-1210 T790M/L858R): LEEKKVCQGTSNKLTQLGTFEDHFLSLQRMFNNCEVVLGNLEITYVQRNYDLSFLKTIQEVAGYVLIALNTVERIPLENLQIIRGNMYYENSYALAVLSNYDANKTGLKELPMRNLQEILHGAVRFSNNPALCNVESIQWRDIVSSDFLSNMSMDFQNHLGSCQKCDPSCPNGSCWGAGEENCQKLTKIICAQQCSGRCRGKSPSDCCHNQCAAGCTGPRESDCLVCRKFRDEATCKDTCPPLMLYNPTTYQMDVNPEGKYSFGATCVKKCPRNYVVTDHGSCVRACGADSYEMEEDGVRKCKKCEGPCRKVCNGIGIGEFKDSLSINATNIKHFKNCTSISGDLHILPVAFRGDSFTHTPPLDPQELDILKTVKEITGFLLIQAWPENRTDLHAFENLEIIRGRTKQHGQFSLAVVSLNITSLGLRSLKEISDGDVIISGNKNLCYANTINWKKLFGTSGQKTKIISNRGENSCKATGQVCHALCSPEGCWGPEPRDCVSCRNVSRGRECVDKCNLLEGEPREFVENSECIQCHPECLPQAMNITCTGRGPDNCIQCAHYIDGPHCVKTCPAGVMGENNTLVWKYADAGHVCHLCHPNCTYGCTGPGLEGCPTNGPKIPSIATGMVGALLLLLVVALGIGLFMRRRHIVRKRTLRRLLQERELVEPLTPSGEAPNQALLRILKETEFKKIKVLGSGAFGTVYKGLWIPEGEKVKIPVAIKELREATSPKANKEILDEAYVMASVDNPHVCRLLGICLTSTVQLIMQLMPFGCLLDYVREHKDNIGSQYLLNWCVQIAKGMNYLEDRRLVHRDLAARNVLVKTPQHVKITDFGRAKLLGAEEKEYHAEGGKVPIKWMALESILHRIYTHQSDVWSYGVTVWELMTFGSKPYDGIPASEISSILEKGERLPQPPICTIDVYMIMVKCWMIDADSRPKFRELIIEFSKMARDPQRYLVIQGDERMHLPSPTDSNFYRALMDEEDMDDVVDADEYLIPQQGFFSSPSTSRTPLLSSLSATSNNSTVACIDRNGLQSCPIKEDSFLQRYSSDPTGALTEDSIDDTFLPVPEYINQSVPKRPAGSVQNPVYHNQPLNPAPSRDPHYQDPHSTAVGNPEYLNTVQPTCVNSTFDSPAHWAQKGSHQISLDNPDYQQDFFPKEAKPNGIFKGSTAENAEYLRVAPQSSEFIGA
Description: as §1, §2
(iv) Peptide/Kinase Mixtures for measurement of EGFR (ErbB1) T790M L858R:
The 2×EGFR (ErbB1) T790M L858R/Tyr 04 mixture is prepared in 50 mM HEPES pH 6.5, 0.01% BRIJ-35, 10 mM MgCl2, 1 mM EGTA, 0.02% NaN3. The final 10 μL Kinase Reaction consists of 0.38-4.22 ng EGFR (ErbB1) T790M L858R and 2 μM Tyr 04 in 50 mM HEPES pH 7.0, 0.01% BRIJ-35, 10 mM MgCl2, 1 mM EGTA, 0.01% NaN3. After the 1 hour Kinase Reaction incubation, 5 μL of a 1:64 dilution of Development Reagent B is added.
as §3, §4

T1 sequence (Q06187 whole entry): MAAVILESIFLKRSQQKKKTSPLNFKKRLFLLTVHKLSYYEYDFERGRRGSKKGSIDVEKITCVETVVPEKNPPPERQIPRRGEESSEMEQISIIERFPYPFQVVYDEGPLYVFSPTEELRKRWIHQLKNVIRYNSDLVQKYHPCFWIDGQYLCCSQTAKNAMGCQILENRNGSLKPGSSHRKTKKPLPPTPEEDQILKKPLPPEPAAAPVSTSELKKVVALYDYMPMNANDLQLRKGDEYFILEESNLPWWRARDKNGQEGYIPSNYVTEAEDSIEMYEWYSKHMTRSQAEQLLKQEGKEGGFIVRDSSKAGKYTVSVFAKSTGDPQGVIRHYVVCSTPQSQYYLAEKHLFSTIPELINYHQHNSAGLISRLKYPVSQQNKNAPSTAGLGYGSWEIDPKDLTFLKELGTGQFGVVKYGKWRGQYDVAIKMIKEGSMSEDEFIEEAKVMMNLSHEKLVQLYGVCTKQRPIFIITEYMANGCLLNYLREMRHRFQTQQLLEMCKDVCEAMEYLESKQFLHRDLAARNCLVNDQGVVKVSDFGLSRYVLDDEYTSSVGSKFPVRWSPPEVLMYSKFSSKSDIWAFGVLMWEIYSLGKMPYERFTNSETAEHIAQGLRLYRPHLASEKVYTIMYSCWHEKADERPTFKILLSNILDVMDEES

Row | Structure (SMILES) | inhibition at 0.1 µM [1] [%] | IC50 [2] [nM] | IC50 [3] [nM] | IC50 [1] [nM] | inhibition at 0.1 µM [2] [%] | inhibition at 0.1 µM [3] [%]
1 | C=CC(=O)N1CCC(n2cnc3cnc(Nc4ccc(N5CCN(C)CC5)c(F)c4)nc32)C1 (stereo not drawn) [Example A004, 1-(3-(2-((3-Fluoro-4-(4-methylpiperazin-1-yl)phenyl)amino)-9H-purin-9-yl)pyrrolidin-1-yl)prop-2-en-1-one] | > 50 | – | – | – | – | –
2 | C=CC(=O)N1CCCC(n2cnc3cnc(Nc4ccc(N5CCN(C)CC5)c(F)c4)nc32)C1 (stereo not drawn) [Example A009, 1-(3-(2-((3-fluoro-4-(4-methylpiperazin-1-yl)phenyl)amino)-9H-purin-9-yl)piperidin-1 yl)prop-2-en-1-one] | > 50 | > 100 | > 100 | < 100 | – | –
3 | C=CC(=O)Nc1cccc(-n2cnc3cnc(Nc4ccc(N5CCN(C)CC5)cc4)nc32)c1 [Example A002, N-(3-(2-((4-(4-methylpiperazin-1-yl)phenyl)amino)-9H-purin-9-yl)phenyl)acrylamide] | > 50 | > 100 | > 100 | < 100 | – | –
4 | C=CC(=O)N1CCC(n2cnc3cnc(Nc4ccc(N5CCN(CCO)CC5)cc4)nc32)C1 (stereo not drawn) [Example A006, 1-(3-(2-((4-(4-(2-hydroxyethyl)piperazin-1-yl)phenyl)amino)-9H-purin-9-yl)pyrrolidin-1-yl)prop-2-en-1-one] | > 50 | – | – | – | – | –
5 | C=CC(=O)N1CCC(n2cnc3cnc(Nc4ccc(N5CCN(C)CC5)cc4)nc32)C1 (stereo not drawn) [Example A005, 1-(3-(2-((4-(4-methylpiperazin-1-yl)phenyl)amino)-9H-purin-9-yl)pyrrolidin-1-yl)prop-2-en-1-one] | > 50 | – | – | – | – | –
6 | C=CC(=O)Nc1cccc(-n2cnc3cnc(Nc4ccc(N5CCN(CCO)CC5)c(F)c4)nc32)c1 [Example A020] | > 50 | – | – | – | < 50 | > 50
7 | C=CC(=O)N1CCCC(n2cnc3cnc(Nc4ccc(N5CCN(CCO)CC5)cc4F)nc32)C1 (stereo not drawn) [Example A016, 1-(3-(2-((2-fluoro-4-(4-(2-hydroxyethyl)piperazin-1-yl)phenyl)amino)-9H-purin-9-yl)piperidin-1-yl)prop-2-en-1-one] | < 50 | – | – | – | < 50 | < 50
8 | C=CC(=O)Nc1cccc(-n2cnc3cnc(Nc4ccc(N5CCN(CCO)CC5)cc4)nc32)c1 [Example A015, N-(3-(2-((4-(4-(2-hydroxyethyl)piperazin-1-yl)phenyl)amino)-9H-purin-9-yl)phenyl)acrylamide] | > 50 | – | – | – | < 50 | < 50
9 | C=CC(=O)N1CCC(n2cnc3cnc(Nc4ccc(N5CCN(C)CC5)cc4F)nc32)C1 (stereo not drawn) [Example A017, 1-(3-(2-((2-fluoro-4-(4-methylpiperazin-1-yl)phenyl)amino)-9H-purin-9-yl)pyrrolidin-1-yl)prop-2-en-1-one] | < 50 | – | – | – | < 50 | < 50
10 | C=CC(=O)N1CCCC(n2cnc3cnc(Nc4ccc(N5CCN(CCO)CC5)c(F)c4)nc32)C1 (stereo not drawn) [Example A012] | > 50 | – | – | – | < 50 | < 50
11 | C=CC(=O)Nc1cccc(-n2cnc3cnc(Nc4ccc(N5CCN(C)CC5)c(F)c4F)nc32)c1 [Example A019, N-(3-(2-((2,3-difluoro-4-(4-methylpiperazin-1-yl)phenyl)amino)-9H-purin-9-yl)phenyl)acrylamide] | < 50 | – | – | – | < 50 | < 50
12 | C=CC(=O)N1CCC(n2cnc3cnc(Nc4ccc(N5CCN(CCO)CC5)c(F)c4)nc32)C1 (stereo not drawn) [Example A007, 1-(3-(2-((3-fluoro-4-(4-(2-hydroxyethyl)piperazin-1-yl)phenyl)amino)-9H-purin-9-yl)pyrrolidin-1-yl)prop-2-en-1-one] | > 50 | – | – | – | – | –
13 | C=CC(=O)Nc1cccc(-n2cnc3cnc(Nc4ccc(N5CCN(CCO)CC5)cc4F)nc32)c1 [Example A003, N-(3-(2-((2-fluoro-4-(4-(2-hydroxyethyl)piperazin-1-yl)phenyl)amino)-9H-purin-9-yl)phenyl)acrylamide] | < 50 | – | – | – | – | –
14 | C=CC(=O)N1CCC(n2cnc3cnc(Nc4ccc(N5CCN(CCO)CC5)cc4F)nc32)C1 (stereo not drawn) [Example A008, 1-(3-(2-((2-fluoro-4-(4-(2-hydroxyethyl)piperazin-1-yl)phenyl)amino)-9H-purin-9-yl)pyrrolidin-1-yl)prop-2-en-1-one] | < 50 | – | – | – | – | –
15 | C=CC(=O)N1CCC(n2cnc3cnc(Nc4ccc(N5CCN(C)CC5)c(F)c4F)nc32)C1 (stereo not drawn) [Example A011, 1-(3-(2-((2,3-difluoro-4-(4-methylpiperazin-1-yl)phenyl)amino)-9H-purin-9-yl)pyrrolidin-1-yl)prop-2-en-1-one] | < 50 | – | – | – | < 50 | < 50
16 | C=CC(=O)Nc1cccc(-n2cnc3cnc(Nc4ccc(N5CCN(C)CC5)c(F)c4)nc32)c1 [Example A010, N-(3-(2-((3-fluoro-4-(4-methylpiperazin-1-yl)phenyl)amino)-9H-purin-9-yl)phenyl)acrylamide] | > 50 | > 100 | > 100 | < 100 | – | –
17 | C=CC(=O)Nc1cccc(-n2cnc3cnc(Nc4ccc(N5CCN(CCO)CC5)c(F)c4F)nc32)c1 [Example A014, N-(3-(2-((2,3-difluoro-4-(4-(2-hydroxyethyl)piperazin-1-yl)phenyl)amino)-9H-purin-9-yl)phenyl)acrylamide] | < 50 | – | – | – | < 50 | < 50
18 | C=CC(=O)N1CCCC(n2cnc3cnc(Nc4ccc(N5CCN(C)CC5)c(F)c4F)nc32)C1 (stereo not drawn) [Example A023, 1-(3-(2-((2,3-difluoro-4-(4-methylpiperazin-1-yl)phenyl)amino)-9H-purin-9-yl)piperidin-1-yl)prop-2-en-1-one] | < 50 | – | – | – | < 50 | < 50
19 | C=CC(=O)N1CCCC(n2cnc3cnc(Nc4ccc(N5CCN(C)CC5)cc4F)nc32)C1 (stereo not drawn) [Example A018, 1-(3-(2-((2-fluoro-4-(4-methylpiperazin-1-yl)phenyl)amino)-9H-purin-9-yl)piperidin-1-yl)prop-2-en-1-one] | < 50 | – | – | – | < 50 | < 50
20 | C=CC(=O)N1CCC(n2cnc3cnc(Nc4ccc(N5CCN(CCO)CC5)c(F)c4F)nc32)C1 (stereo not drawn) [Example A022] | < 50 | – | – | – | < 50 | < 50
21 | C=CC(=O)N1CCCC(n2cnc3cnc(Nc4ccc(N5CCN(CCO)CC5)cc4)nc32)C1 (stereo not drawn) [Example A013, 1-(3-(2-((4-(4-(2-hydroxyethyl)piperazin-1-yl)phenyl)amino)-9H-purin-9-yl)piperidin-1-yl)prop-2-en-1-one] | > 50 | – | – | – | < 50 | < 50
22 | C=CC(=O)Nc1cccc(-n2cnc3cnc(Nc4ccc(N5CCN(C)CC5)cc4F)nc32)c1 [Example A021, N-(3-(2-((2-fluoro-4-(4-methylpiperazin-1-yl)phenyl)amino)-9H-purin-9-yl)phenyl)acrylamide] | < 50 | – | – | – | < 50 | < 50
